The term pEC50 denotes the negative decadic logarithm of the EC50, by convention in mol/L. By pIC50 is commonly meant the IC50 on a negative log10 scale, so that one unit is a factor of ten.

Test [1] concerns NCI-H358 cells. As to the kind of experiment: NCI-H358 3D tumor spheroid growth inhibition. The test is classed as cell-based. The note with it: Homo sapiens, NCI-H358, 168 h, 3D spheroids, 7 days, 3D CellTiter Glo; cellular IC50 designated EC50; read-out: H358 EC50. Put shortly:
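Cells seeded at 1000/well in ultra-low-attachment plates at 37 °C, 5% CO2 to form spheroids, then incubated a further 7 days with compounds. Viability by 3D CellTiter Glo luminescence; % inhibition versus DMSO wells, with normalized cellular IC50 reported as EC50.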

Test [2] addresses SHP-2 full length protein (Homo sapiens (Human), UniProt Q06124). As to the kind of experiment: SHP-2 biochemical DiFMUP pseudosubstrate-fluorogenic assay. The note with it: 0.2 nM SHP-2, 1 μM IRS-1 activator peptide, 50 μM DiFMUP; read-out: SHP2 IC50. Put shortly:
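In-house recombinant full-length SHP-2 preincubated 90 min at room temperature with compounds (1:3 series, 10,000–0.005 nM), then DiFMUP substrate added at 50 μM final for 30 min more. Fluorescence normalised to DMSO wells (100%) and IC50 derived by curve fitting.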

pEC50, pIC50: −log10 of the molar value.

SHP-2 full length protein, sequence (Q06124 whole entry): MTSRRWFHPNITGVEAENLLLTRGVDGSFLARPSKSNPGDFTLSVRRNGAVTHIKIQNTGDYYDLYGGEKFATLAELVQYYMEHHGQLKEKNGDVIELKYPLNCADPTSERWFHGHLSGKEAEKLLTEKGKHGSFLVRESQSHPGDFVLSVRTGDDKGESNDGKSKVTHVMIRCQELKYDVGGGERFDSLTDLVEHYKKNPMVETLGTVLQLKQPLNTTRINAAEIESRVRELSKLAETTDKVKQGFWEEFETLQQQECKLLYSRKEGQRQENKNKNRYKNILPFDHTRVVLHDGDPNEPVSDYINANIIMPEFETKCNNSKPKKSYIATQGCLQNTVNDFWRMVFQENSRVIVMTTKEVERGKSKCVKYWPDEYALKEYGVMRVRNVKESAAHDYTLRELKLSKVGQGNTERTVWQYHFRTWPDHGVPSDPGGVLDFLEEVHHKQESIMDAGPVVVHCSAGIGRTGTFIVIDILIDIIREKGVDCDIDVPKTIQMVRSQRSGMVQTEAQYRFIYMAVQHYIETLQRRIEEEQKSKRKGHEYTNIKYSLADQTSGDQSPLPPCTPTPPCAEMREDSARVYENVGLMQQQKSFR

For the molecule `Cc1nc(N2CCC3(CCC[C@H]3N)CC2)n2ccnc2c1-c1ccc2c(c1)OC(F)(F)O2` [Example 74, (R)-8-(8-(2,2-difluorobenzo[d][1,3]dioxol-5-yl)-7-methylimidazo[1,2-c]pyrimidin-5-yl)-8-azaspiro[4.5]decan-1-amine], the negative logarithm of the EC50 (pEC50) in test [1] is < 4.90. For the same molecule, the pIC50 in test [2] was 6.07.
With `Cc1nc(N2CCC3(CC2)C[C@@H](O)C[C@H]3N)n2ccnc2c1Sc1cccc(Cl)c1Cl` [Example 75, (2R,4R)-4-amino-8-(8-((2,3-dichlorophenyl)thio)-7-methylimidazo[1,2-c]pyrimidin-5-yl)-8-azaspiro[4.5]decan-2-ol], the pEC50 in test [1] was 7.32. In addition, the pIC50 in test [2] was 8.41.
Consider `Cc1nc(N2CCC3(CC2)CO[C@@H](C)[C@H]3N)n2ccnc2c1Sc1cccc(Cl)c1Cl` [Example 76, (3S,4S)-8-(8-((2,3-dichlorophenyl)thio)-7-methylimidazo[1,2-c]pyrimidin-5-yl)-3-methyl-2-oxa-8-azaspiro[4.5]decan-4-amine], for which the pEC50 in test [1] was 7.23. Further, the pIC50 in test [2] is 8.48.
In the case of `N[C@@H]1CCCC12CCN(c1ncc(Sc3ccc4cn[nH]c4c3)c3nccn13)CC2` [Example 77, (R)-8-(8-((1H-indazol-6-yl)thio)imidazo[1,2-c]pyrimidin-5-yl)-8-azaspiro[4.5]decan-1-amine], the pEC50 in test [1] is 5.51. Besides, the pIC50 in test [2] was 6.74.
With `N[C@@H]1CCCC12CCN(c1ncc(Sc3ccnc4ccccc34)c3nccn13)CC2` [Example 78, (R)-8-(8-(quinolin-4-ylthio)imidazo[1,2-c]pyrimidin-5-yl)-8-azaspiro[4.5]decan-1-amine], in test [1], the pEC50 is 7.02. In test [2], the negative-log IC50 (pIC50) was 8.23.
For `N[C@@H]1CCCC12CCN(c1ncc(SC3CCCCC3)c3nccn13)CC2` [Example 79, (R)-8-(8-(cyclohexylthio)imidazo[1,2-c]pyrimidin-5-yl)-8-azaspiro[4.5]decan-1-amine], in test [1], the pEC50 was < 4.90. Also, in test [2], the pIC50 was 5.28.
On the same counts, the results for `Cc1nccc(Sc2cnc(N3CCC4(CCC[C@H]4N)CC3)n3ccnc23)c1C` [Example 80, (R)-8-(8-((2,3-dimethylpyridin-4-yl)thio)imidazo[1,2-c]pyrimidin-5-yl)-8-azaspiro[4.5]decan-1-amine] are 6.57 and 7.55.
Regarding `Cc1c(Sc2cnc(N3CCC4(CCC[C@H]4N)CC3)n3ccnc23)ccnc1Cl` [Example 81, (R)-8-(8-((2-chloro-3-methylpyridin-4-yl)thio)imidazo[1,2-c]pyrimidin-5-yl)-8-azaspiro[4.5]decan-1-amine], in test [1], the pEC50 was 7.09. Besides, the pIC50 in test [2] is 8.14.
With `N[C@@H]1CCCC12CCN(c1ncc(Sc3ccnc4c3CCCC4)c3nccn13)CC2` [Example 82, (R)-8-(8-((5,6,7,8-tetrahydroquinolin-4-yl)thio)imidazo[1,2-c]pyrimidin-5-yl)-8-azaspiro[4.5]decan-1-amine], the pEC50 in test [1] is 6.90. Moreover, in test [2], the pIC50 is 7.96.
As to `N[C@@H]1CCCC12CCN(c1ncc(Sc3cccn4cnnc34)c3nccn13)CC2` [Example 83, (R)-8-(8-([1,2,4]triazolo[4,3-a]pyridin-8-ylthio)imidazo[1,2-c]pyrimidin-5-yl)-8-azaspiro[4.5]decan-1-amine], the pEC50 in test [1] was < 4.90. In test [2], the pIC50 was 6.82.
`N[C@@H]1c2ccccc2CC12CCN(c1ncc(Sc3cccc(Cl)c3Cl)c3nccn13)CC2` [Example 85, (S)-1′-(8-((2,3-dichlorophenyl)thio)imidazo[1,2-c]pyrimidin-5-yl)-1,3-dihydrospiro[indene-2,4′-piperidin]-1-amine]: in test [1], the pEC50 is 7.96. In addition, in test [2], the pIC50 was 8.68.
As for `N[C@H]1c2ccccc2CC12CCN(c1ncc(Sc3cccc(Cl)c3Cl)c3nccn13)CC2` [Example 86, (R)-1′-(8-((2,3-dichlorophenyl)thio)imidazo[1,2-c]pyrimidin-5-yl)-1,3-dihydrospiro[indene-2,4′-piperidin]-1-amine], in test [1], the pEC50 was 6.46. Further, the pIC50 in test [2] was 6.60.
For `N#Cc1cccc2c(Sc3cnc(N4CCC5(CCC[C@H]5N)CC4)n4ccnc34)ccnc12` [Example 88, (R)-4-((5-(1-amino-8-azaspiro[4.5]decan-8-yl)imidazo[1,2-c]pyrimidin-8-yl)thio)quinoline-8-carbonitrile], the pEC50 in test [1] was 6.80. The pIC50 in test [2] was 7.74.
As to `N[C@@H]1CCCC12CCN(c1ncc(Sc3cc(=O)[nH]c4ccccc34)c3nccn13)CC2` [Example 89, (R)-4-((5-(1-amino-8-azaspiro[4.5]decan-8-yl)imidazo[1,2-c]pyrimidin-8-yl)thio)quinolin-2(1H)-one], in test [1], the pEC50 is < 4.90. Moreover, in test [2], the pIC50 is < 5.00.
`N[C@@H]1CCCC12CCN(c1ncc(Sc3ccnc4ncccc34)c3nccn13)CC2` [Example 90, (R)-8-(8-((1,8-naphthyridin-4-yl)thio)imidazo[1,2-c]pyrimidin-5-yl)-8-azaspiro[4.5]decan-1-amine]: the pEC50 in test [1] was 6.39. For the same molecule, in test [2], the pIC50 was 7.43.
Turning to `C[C@H](N)C1CCN(c2ncc(Sc3cccc(Cl)c3Cl)c3nccn23)CC1` [Example 91, (S)-1-(1-(8-((2,3-dichlorophenyl)thio)imidazo[1,2-c]pyrimidin-5-yl)piperidin-4-yl)ethan-1-amine], the pEC50 in test [1] was 5.70. Besides, the pIC50 in test [2] is 6.77.
Taken in the same sequence, the figures for `C[C@@H]1OCC2(CCN(c3ncc(Sc4cc(=O)n(C)c5ccccc45)c4nccn34)CC2)[C@@H]1N` [Example 92, 4-((5-((3S,4S)-4-amino-3-methyl-2-oxa-8-azaspiro[4.5]decan-8-yl)imidazo[1,2-c]pyrimidin-8-yl)thio)-1-methylquinolin-2(1H)-one] were < 4.90 and < 5.00.
As for `C[C@@H]1OCC2(CCN(c3ncc(Sc4cncc5ccccc45)c4nccn34)CC2)[C@@H]1N` [Example 93, (3S,4S)-3-methyl-8-(8-(isoquinolin-4-ylthio)imidazo[1,2-c]pyrimidin-5-yl)-2-oxa-8-azaspiro[4.5]decan-4-amine], in test [1], the pEC50 was < 4.90. The pIC50 in test [2] was 6.32.
As for `C[C@@H](N)C1CCN(c2ncc(Sc3cccc(Cl)c3Cl)c3nccn23)CC1` [Example 94, (R)-1-(1-(8-((2,3-dichlorophenyl)thio)imidazo[1,2-c]pyrimidin-5-yl)piperidin-4-yl)ethan-1-amine], the pEC50 in test [1] is 6.00. Further, the pIC50 in test [2] is 6.77.
As for `C[C@@H]1OCC2(CCN(c3ncc(Sc4cccc5ncsc45)c4nccn34)CC2)[C@@H]1N` [Example 95, (3S,4S)-8-(8-(benzo[d]thiazol-7-ylthio)imidazo[1,2-c]pyrimidin-5-yl)-3-methyl-2-oxa-8-azaspiro[4.5]decan-4-amine], in test [1], the pEC50 is 7.02. In addition, the pIC50 in test [2] was 8.28.
Taken in the same sequence, the figures for `C[C@@H]1OCC2(CCN(c3ncc(Sc4cccc5c(C=O)csc45)c4nccn34)CC2)[C@@H]1N` [Example 96, 7-((5-((3S,4S)-4-amino-3-methyl-2-oxa-8-azaspiro[4.5]decan-8-yl)imidazo[1,2-c]pyrimidin-8-yl)thio)benzo[b]thiophene-3-carbaldehyde] were 7.01 and 8.39.

Source of the values: US11179397B2, “Imidazopyrimidine derivatives” (Gilead Sciences, Inc., priority 2018, dated 2021).
